Measurements: publication PMC10223470 (Molecules, 2023)
Structures can show the parent of a compound that is named as a salt.

These molecules were tested against T1, human D2S receptor (Homo sapiens, UniProt P14416) (assay: Competition radioligand binding at human D2 receptor ([3H]-Spiperone, CHO-K1 membranes)). Details: D2 receptor affinity.
T1 construct: expressed in transfected cells; host or cells: CHO-K1
T1 sequence (P14416 1-414 isoform P14416-2): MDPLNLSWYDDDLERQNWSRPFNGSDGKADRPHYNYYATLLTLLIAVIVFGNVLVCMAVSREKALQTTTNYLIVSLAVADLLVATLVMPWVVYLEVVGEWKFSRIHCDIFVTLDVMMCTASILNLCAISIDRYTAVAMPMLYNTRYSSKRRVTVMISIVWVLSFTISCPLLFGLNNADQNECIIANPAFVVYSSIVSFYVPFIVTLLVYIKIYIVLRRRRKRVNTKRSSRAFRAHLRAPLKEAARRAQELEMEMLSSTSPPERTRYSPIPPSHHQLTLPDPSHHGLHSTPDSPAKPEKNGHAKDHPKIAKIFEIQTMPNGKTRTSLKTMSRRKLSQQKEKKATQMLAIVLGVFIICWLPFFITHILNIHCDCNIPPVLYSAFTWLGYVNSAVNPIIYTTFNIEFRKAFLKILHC
Protocol: Experiments were carried out in membranes isolated from a CHO-K1 cell line stably overexpressing the cloned human D2S receptor.
Competition radioligand binding assays were performed on membranes isolated from cell lines stably expressing the cloned human receptors, which were either in-house or commercially available. […] Assays (250 μL assay final volume) were carried out in 96-well polypropylene plates in duplicate. In short, the suspension of appropriate membrane protein was incubated in an assay buffer with the addition of the corresponding radioligand, in the presence or absence of a tested compound or reference compound. […] After the incubation, the content of the test plates was transferred to 96 well plates with glass fiber filter GF/B or GF/C, previously pretreated with polyethyleneimine (PEI), and rapidly filtered with the use of vacuum, followed by rapid washing with cold (4 °C) wash buffer. After that, the filter plates were dried at 60 °C for 1 h. Then, 30 μL of liquid scintillation cocktail (UniverSol-ES, MP Biomedicals, Solon, OH, USA) was added to each well of the filter plates, and the radioactivity was measured in a MicroBeta^2 microplate scintillation counter (PerkinElmer, Madrid, Spain).
Competition binding curves were fitted to a one-site competition binding model (Fit Ki) with the use of Prism 7 software (GraphPad, San Diego, CA, USA). logKi (log of the equilibrium dissociation constant (Ki)) values were obtained after constraining the concentration of radioligand employed in the assay and its dissociation constant (KD) as determined in saturation radioligand binding assays.
With `O=C(CCN1C(=O)CCOc2ccccc21)Nc1ccc(C(F)(F)F)cc1` [Compound 4, 3-(4-Oxo-3,4-dihydrobenzo[b][1,4]oxazepin-5(2H)-yl)-N-(4-(trifluoromethyl)phenyl)propanamide] the “decrease of activity compared to the initial compound (D2AAK2)” value was 10 fold.

Same assay, conditions: mean ± SEM of 2–3 independent experiments in duplicate; read-out: huD2 Ki
`O=C(CCN1C(=O)CCOc2ccccc21)Nc1ccc(C(F)(F)F)cc1` [Compound 4, 3-(4-Oxo-3,4-dihydrobenzo[b][1,4]oxazepin-5(2H)-yl)-N-(4-(trifluoromethyl)phenyl)propanamide] was tested, and the Ki was 3.846 ± 0.035 µM.

Same assay, conditions: read-out: huD2 % inh. at 10 µM
`O=C(CCN1C(=O)COc2ccccc21)Nc1ccc(C(F)(F)F)cc1` [Compound 1, 3-(3-Oxo-2,3-dihydro-4H-benzo[b][1,4]oxazin-4-yl)-N-(4-(trifluoromethyl)phenyl)propanamide] gave an inhibition at 10 µM of 35 ± 14%. Molecule `O=C(CCn1c(=O)sc2ccccc21)Nc1ccc(C(F)(F)F)cc1` [Compound 2, 3-(2-Oxobenzo[d]thiazol-3(2H)-yl)-N-(4-(trifluoromethyl)phenyl)propanamide] has an inhibition at 10 µM of 11 ± 5%. Work on `O=C(CCn1c(=O)oc2ccccc21)Nc1ccc(C(F)(F)F)cc1` [Compound 3, 3-(2-Oxobenzo[d]oxazol-3(2H)-yl)-N-(4-(trifluoromethyl)phenyl)propanamide] yielded an inhibition at 10 µM of 8 ± 8%. `O=C(CCN1CCSCC1=O)Nc1ccc(C(F)(F)F)cc1` [Compound 5, 3-(3-Oxothiomorpholino)-N-(4-(trifluoromethyl)phenyl)propanamide] showed an inhibition at 10 µM of 14 ± 10%. In the case of `O=C(CCN1CCCCC1=O)Nc1ccc(C(F)(F)F)cc1` [Compound 6, 3-(2-Oxopiperidin-1-yl)-N-(4-(trifluoromethyl)phenyl)propanamide], the inhibition at 10 µM is reported as 14 ± 11%. Molecule `Cc1ccccc1S(=O)(=O)NCCC(=O)Nc1ccc(C(F)(F)F)cc1` [Compound 7, 3-((2-Methylphenyl)sulfonamido)-N-(4-(trifluoromethyl)phenyl)propanamide] has an inhibition at 10 µM of 13 ± 13%. Work on `Cc1ccc(S(=O)(=O)NCCC(=O)Nc2ccc(C(F)(F)F)cc2)cc1` [Compound 8, 3-((4-Methylphenyl)sulfonamido)-N-(4-(trifluoromethyl)phenyl)propanamide] yielded an inhibition at 10 µM of 8 ± 7%. With `O=C(CN1C(=O)CSc2ccccc21)Nc1ccc(C(F)(F)F)cc1` [Compound 9, 2-(3-Oxo-2,3-dihydro-4H-benzo[b][1,4]thiazin-4-yl)-N-(4-(trifluoromethyl)phenyl)acetamide] the inhibition at 10 µM was 8 ± 8%. `O=C(CCN1C(=O)CSc2ccccc21)Nc1ccccc1` [Compound 10, 3-(3-Oxo-2,3-dihydro-4H-benzo[b][1,4]thiazin-4-yl)-N-phenylpropanamide] gave an inhibition at 10 µM of 39 ± 4%. `O=C(CCN1C(=O)CSc2ccccc21)Nc1ccccc1C(F)(F)F` [Compound 11, 3-(3-Oxo-2,3-dihydro-4H-benzo[b][1,4]thiazin-4-yl)-N-(2-(trifluoromethyl)phenyl)propanamide] was tested, and the inhibition at 10 µM was 9 ± 1%. Work on `Cc1ccccc1NC(=O)CCN1C(=O)CSc2ccccc21` [Compound 12, 3-(3-Oxo-2,3-dihydro-4H-benzo[b][1,4]thiazin-4-yl)-N-(o-tolyl)propanamide] yielded an inhibition at 10 µM of 10%. Work on `Cc1cccc(NC(=O)CCN2C(=O)CSc3ccccc32)c1` [Compound 13, 3-(3-Oxo-2,3-dihydro-4H-benzo[b][1,4]thiazin-4-yl)-N-(m-tolyl)propanamide] yielded an inhibition at 10 µM of 32 ± 4%. With `O=C(CCN1C(=O)CSc2ccccc21)Nc1ccccc1Cl` [Compound 15, N-(2-Chlorophenyl)-3-(3-oxo-2,3-dihydro-4H-benzo[b][1,4]thiazin-4-yl)propanamide] the inhibition at 10 µM was 9 ± 3%. For `O=C(CCN1C(=O)CSc2ccccc21)Nc1cccc(Cl)c1` [Compound 16, N-(3-Chlorophenyl)-3-(3-oxo-2,3-dihydro-4H-benzo[b][1,4]thiazin-4-yl)propanamide], the inhibition at 10 µM was 42 ± 8%. `COc1ccccc1NC(=O)CCN1C(=O)CSc2ccccc21` [Compound 18, N-(2-Methoxyphenyl)-3-(3-oxo-2,3-dihydro-4H-benzo[b][1,4]thiazin-4-yl)propanamide] gave an inhibition at 10 µM of 6%. With `COc1cccc(NC(=O)CCN2C(=O)CSc3ccccc32)c1` [Compound 19, N-(3-Methoxyphenyl)-3-(3-oxo-2,3-dihydro-4H-benzo[b][1,4]thiazin-4-yl)propanamide] the inhibition at 10 µM was 10 ± 4%. `COc1ccc(NC(=O)CCN2C(=O)CSc3ccccc32)cc1` [Compound 20, N-(4-Methoxyphenyl)-3-(3-oxo-2,3-dihydro-4H-benzo[b][1,4]thiazin-4-yl)propanamide] gave an inhibition at 10 µM of 47 ± 1%. With `O=C(CCN1C(=O)CSc2ccccc21)Nc1ccccc1[N+](=O)[O-]` [Compound 21, N-(2-Nitrophenyl)-3-(3-oxo-2,3-dihydro-4H-benzo[b][1,4]thiazin-4-yl)propanamide] the inhibition at 10 µM was 5 ± 3%. `O=C(CCN1C(=O)CSc2ccccc21)Nc1cccc([N+](=O)[O-])c1` [Compound 22, N-(3-Nitrophenyl)-3-(3-oxo-2,3-dihydro-4H-benzo[b][1,4]thiazin-4-yl)propanamide] showed an inhibition at 10 µM of 27 ± 2%.

These molecules were tested on mice (assay: Amphetamine-induced hyperactivity in mice). Details: amphetamine 3 mg/kg s.c.
Assay type: in vivo
Protocol: (§1) The experiments were carried out on 6 weeks old naive Swiss male mice (Experimental Medicine Center (OMD), Lublin, Poland), weighing 28–30 g. The cages with mice were located in air-conditioned rooms maintaining the ambient temperature within the range of 23–25 °C. The animals were provided with a natural 12 h day/night cycle, replicating the day and night mode. Each testing group was represented by 8–10 animals, depending on the research schedule. All experiments were conducted according to the National Institute of Health Guidelines for the Care and Use of Laboratory Animals (8th edition) and to the European Community Council Directive for the Care and Use of Laboratory Animals of 22 September 2010 (2010/63/EU) and were approved by the Local Ethical Committee (number of ethical approval: 147/2018).
(§2) Compound 17 (25, 50, 75 mg/kg) was suspended in 1% Tween 80 in saline solution and was administered intraperitoneally (i.p.) 60 min before the test. Diazepam (DZ, Relanium, Polfa, Poland) at a dose of 1 mg/kg was diluted in 0.9% saline containing 1% Tween 80 and was administered subcutaneously (s.c.), 60 min before the test. Imipramine hydrochloride (30 mg/kg, Sigma-Aldrich was administered intraperitoneally (i.p.) 60 min before the test. D-amphetamine sulfate (3 mg/kg; Sigma-Aldrich, USA) was given subcutaneously (s.c.). Prior to administration, the agent was dissolved in saline and injected 30 min before the test. Control animals received an (i.p.) or (s.c.) injection of a respective vehicle. All compounds were injected in a manner generally accepted in experimental pharmacology, in an amount of 10 mL/kg body weight.
The measurement of the spontaneous locomotor activity was carried out using the OptoVarimex 4 Auto-Track device (Columbus Instruments, Columbus, OH, USA). Tested animals are kept in cages for 30 min. Their activity was recorded as interruptions of the light beams after 10 and 30 min of the test, and it was calculated automatically as a traveled distance in cm (±SEM). To determine whether compound 17 has an influence on amphetamine-induced hyperactivity, each mouse received 17 (25, 50 and 75 mg/kg; i.p.) and amphetamine (3 mg/kg; s.c.) 30 min after injection of 17 or vehicle and then spontaneous locomotor activity was measured.
For `C[C@H](N)Cc1ccccc1` [amphetamine, D-amphetamine sulfate, reference compound], the “effect on locomotor activity compared to the control group after 10 min” value was “increased mice locomotor activity” and the “effect on locomotor activity compared to the control group after 30 min” value was “increased mice locomotor activity”.

What follows are molecules tested on mice (assay: Elevated plus-maze (EPM) test). Details: 1 mg/kg s.c., 60 min before the test; p < 0.05 versus vehicle.
Assay type: in vivo
Protocol: as §1, §2
The experiment was carried out on mice according to the method of Lister. […] The number of entries into the open arms and the time spent in these arms were scored for a 5-min test period. […] The following measures were obtained from the test: the total number of arm entries, the percentage of entries into the open arms, the time spent in the open arms expressed as a percentage of the time spent in both the open and closed arms. […]
With `CN1C(=O)CN=C(c2ccccc2)c2cc(Cl)ccc21` [Diazepam, reference compound] the “time spent in the open arms of the maze” value was “statistically significant increase”.

These molecules were tested on mice (assay: Forced swim test (FST)). Details: imipramine 30 mg/kg i.p., 60 min before the test; p < 0.001.
Assay type: in vivo
Protocol: The experiments were carried out on 6 weeks old naive Swiss male mice (Experimental Medicine Center (OMD), Lublin, Poland), weighing 28–30 g. The cages with mice were located in air-conditioned rooms maintaining the ambient temperature within the range of 23–25 °C. The animals were provided with a natural 12 h day/night cycle, replicating the day and night mode. Each testing group was represented by 8–10 animals, depending on the research schedule. All experiments were conducted according to the National Institute of Health Guidelines for the Care and Use of Laboratory Animals (8th edition) and to the European Community Council Directive for the Care and Use of Laboratory Animals of 22 September 2010 (2010/63/EU) and were approved by the Local Ethical Committee (number of ethical approval: 147/2018). Compound 17 (25, 50, 75 mg/kg) was suspended in 1% Tween 80 in saline solution and was administered intraperitoneally (i.p.) 60 min before the test. […] Imipramine hydrochloride (30 mg/kg, Sigma-Aldrich was administered intraperitoneally (i.p.) 60 min before the test. […] Sigma-Aldrich, USA) was given subcutaneously (s.c.). Prior to administration, the agent was dissolved in saline and injected 30 min before the test. Control animals received an (i.p.) or (s.c.) injection of a respective vehicle. All compounds were injected in a manner generally accepted in experimental pharmacology, in an amount of 10 mL/kg body weight. Forced Swim Test was carried out according to the method of Porsolt et al.. It is a standard behavioral test, called the resignation test, which is used to determine the effectiveness of antidepressant drugs in laboratory rodents. Each mouse was placed individually for 6 min into a glass cylinder (height 25 cm, diameter 10 cm) with 15 cm of water at 23–25 °C. After the first 2 min of the test, the total duration of immobility (in seconds) was measured. An animal was judged to be immobile when it ceased struggling and remained floating motionless and making only movements allowing it to keep the head just above the surface of the water.
For `CN(C)CCCN1c2ccccc2CCc2ccccc21` [imipramine, Imipramine hydrochloride, reference compound], the “effect on immobility time” value was “statistically significant decrease”.
